The target of one test is T1, human KDR kinase (Homo sapiens, UniProt P35968).
T1 construct: purchased Carna 08-191
Briefly: KDR Kinase Assay (mobility shift assay, ATP at Km). The class given is biochemical. As to conditions: 92 μM ATP (Km), read-out: KDR Enzymatic Activity. Here is the method: Compounds were tested by Mobility shift assay with ATP concentration at Km. The assay used human KDR kinase (Carna 08-191). Test compounds were prepared and diluted in DMSO in 3-fold serial dilutions to 50× of the final testing concentrations. The compounds were then further diluted to 5× by the kinase reaction buffer (50 mM HEPES pH 7.5, 0.0015% Brij-35). The enzymatic reaction for compound testing was performed in a white 384-well polypropylene plate (Corning 3573) with a total reaction volume of 25 μl containing 1.2 nM KDR, 3 μM peptide substrate FAM-P22 (GL Biochem 112393), and 92 μM ATP (Sigma A7699-1G). The assay started with loading RET diluted in kinase reaction buffer to wells, followed by addition of equal volume of 5× compounds for 15-min incubation at the room temperature for pre-treatment. The enzymatic reaction was initiated by addition of mixture of the substrate and ATP prepared in kinase reaction buffer. After incubation at 28° C. for one hour, 25 μl of stopper buffer (a mixture of 100 mM HEPES pH 7.5 buffer, 0.015% Brij-35, 50 mM EDTA and 0.2% of coating reagent 3 (Cliper Lifesciences)). After 30 minutes of incubation at room temperature, the plate was read in a Caliper. Percent of control was calculated as the percentage of compound-treated vs 2% DMSO vehicle-treated. The dose-response curves were generated and the IC50s were calculated by nonlinear sigmoid curve fitting using XLFit.

The subject of the next test is BAF3 cells. The test can be described thus: BAF3 Cell Proliferation Assay (CellTiter-Glo, without RET driven, IL-3). It counts as cell-based. The settings on record: Mus musculus; growth inhibition in BAF3 cells, 72 hours, with IL-3; read-out: BAF3 Cellular Activity. Put shortly: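 BAF3 cells in RPMI-1640 with 10% FBS and 1 ng/ml IL-3, seeded 2,000/well and settled 24 h at 37 °C, then exposed to compound at final 10 μM down to 0.0015 μM (0.1% DMSO) for 72 h. Viability by CellTiter-Glo luminescence versus DMSO controls; IC50 from curve fit.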
Background: ATP-based viability assays read luminescence as a measure of living cells.

The target in the next test is T2, human Aurora B kinase (Homo sapiens, UniProt Q96GD4).
T2 construct: purchased Carna 05-102
The test can be described thus: Aurora B Kinase Assay (mobility shift assay, ATP at Km). The settings on record: 15 μM ATP (Km), read-out: AurB Enzymatic Activity. The class given is biochemical. Here is the method: Compounds were tested by Mobility shift assay with ATP concentration at Km. The assay used human Aurora B kinase (Carna 05-102). Test compounds were prepared and diluted in DMSO in 3-fold serial dilutions to 50× of the final testing concentrations. The compounds were then further diluted to 5× by the kinase reaction buffer (50 mM HEPES pH 7.5, 0.0015% Brij-35). The enzymatic reaction for compound testing was performed in a white 384-well polypropylene plate (Corning 3573) with a total reaction volume of 25 μl containing 9 nM Aurora B, 3 μM peptide substrate FAM-P21 (GL Biochem 116370), and 15 μM ATP (Sigma A7699-1G). The assay started with loading Aurora B diluted in kinase reaction buffer to wells, followed by addition of equal volume of 5× compounds for 15-min incubation at the room temperature for pre-treatment. The enzymatic reaction was initiated by addition of mixture of the substrate and ATP prepared in kinase reaction buffer. After incubation at 28° C. for one hour, 25 μl of stopper buffer (a mixture of 100 mM HEPES pH 7.5 buffer, 0.015% Brij-35, 50 mM EDTA and 0.2% of coating reagent 3 (Cliper Lifesciences)). After 30 minutes of incubation at room temperature, the plate was read in a Caliper. Percent of control was calculated as the percentage of compound-treated vs 2% DMSO vehicle-treated. The dose-response curves were generated and the IC50 values were calculated by nonlinear sigmoid curve fitting using XLFit.

T2 sequence (Q96GD4 whole entry): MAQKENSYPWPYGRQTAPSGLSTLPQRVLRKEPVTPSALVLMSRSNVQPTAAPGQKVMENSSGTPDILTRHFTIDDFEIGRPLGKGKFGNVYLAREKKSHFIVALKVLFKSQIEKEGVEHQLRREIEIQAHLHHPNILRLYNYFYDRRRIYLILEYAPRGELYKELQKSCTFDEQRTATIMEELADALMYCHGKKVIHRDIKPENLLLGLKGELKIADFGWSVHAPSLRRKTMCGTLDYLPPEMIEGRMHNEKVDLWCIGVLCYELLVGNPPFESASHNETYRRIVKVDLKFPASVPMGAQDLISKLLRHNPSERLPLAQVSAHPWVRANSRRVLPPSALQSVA
T2 sequence (Q9NQS7 803-918 partner limits assumed): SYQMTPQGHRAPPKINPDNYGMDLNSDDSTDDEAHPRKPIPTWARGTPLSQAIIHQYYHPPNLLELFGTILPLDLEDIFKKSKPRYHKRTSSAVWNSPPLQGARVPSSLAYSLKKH
T1 sequence (P35968 20-1356): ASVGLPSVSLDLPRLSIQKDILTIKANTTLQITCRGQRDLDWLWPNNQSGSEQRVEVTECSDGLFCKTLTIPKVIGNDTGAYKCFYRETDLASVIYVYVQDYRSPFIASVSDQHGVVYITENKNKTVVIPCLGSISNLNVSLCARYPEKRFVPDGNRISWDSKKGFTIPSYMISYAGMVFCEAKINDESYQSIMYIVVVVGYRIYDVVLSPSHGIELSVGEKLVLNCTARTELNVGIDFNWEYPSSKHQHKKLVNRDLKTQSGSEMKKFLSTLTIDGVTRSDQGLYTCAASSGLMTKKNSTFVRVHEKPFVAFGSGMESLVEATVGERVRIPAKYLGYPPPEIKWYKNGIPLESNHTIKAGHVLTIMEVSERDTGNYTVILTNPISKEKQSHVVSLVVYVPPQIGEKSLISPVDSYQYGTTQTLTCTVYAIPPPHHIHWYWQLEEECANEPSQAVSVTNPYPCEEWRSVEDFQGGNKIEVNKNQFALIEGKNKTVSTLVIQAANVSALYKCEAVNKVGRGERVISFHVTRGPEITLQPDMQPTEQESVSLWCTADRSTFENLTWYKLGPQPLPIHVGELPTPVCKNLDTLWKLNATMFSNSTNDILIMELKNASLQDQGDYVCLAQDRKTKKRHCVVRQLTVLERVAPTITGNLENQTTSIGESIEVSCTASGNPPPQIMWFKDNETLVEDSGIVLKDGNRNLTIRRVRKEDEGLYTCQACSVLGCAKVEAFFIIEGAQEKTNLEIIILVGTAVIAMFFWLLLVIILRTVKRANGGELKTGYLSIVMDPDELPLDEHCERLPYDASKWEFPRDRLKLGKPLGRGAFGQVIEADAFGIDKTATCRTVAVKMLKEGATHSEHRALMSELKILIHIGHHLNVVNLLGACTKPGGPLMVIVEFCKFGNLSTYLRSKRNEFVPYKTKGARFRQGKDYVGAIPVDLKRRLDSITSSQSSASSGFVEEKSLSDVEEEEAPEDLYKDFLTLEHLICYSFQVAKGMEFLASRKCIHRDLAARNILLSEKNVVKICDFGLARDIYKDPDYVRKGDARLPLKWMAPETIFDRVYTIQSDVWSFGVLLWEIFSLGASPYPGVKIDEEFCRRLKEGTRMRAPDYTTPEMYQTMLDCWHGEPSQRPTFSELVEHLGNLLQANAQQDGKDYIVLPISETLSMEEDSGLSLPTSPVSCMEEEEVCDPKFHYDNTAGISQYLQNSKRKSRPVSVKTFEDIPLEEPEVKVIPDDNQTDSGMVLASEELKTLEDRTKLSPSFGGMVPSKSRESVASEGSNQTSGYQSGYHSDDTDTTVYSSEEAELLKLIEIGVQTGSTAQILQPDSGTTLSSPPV

As to `COc1ccc(CN2C3CC2CN(c2ccc(-c4cc(-c5ccc(C(C)(C)NC(C)=O)cn5)cn5ncc(C#N)c45)cn2)C3)cn1` [Example 12, N-(2-(6-(3-cyano-4-(6-(6-((6-methoxypyridin-3-yl)methyl)-3,6-diazabicyclo[3.1.1]heptan-3-yl)pyridin-3-yl)pyrazolo[1,5-a]pyridin-6-yl)pyridin-3-yl)propan-2-yl)acetamide], the figures for the IC50 at human KDR kinase, in the test on BAF3 cells and at human Aurora B kinase were 0.002 µM, 1.05 µM and 0.0252 µM, respectively.

The values are drawn from patent publication US20260184726A1, “HETEROCYCLIC COMPOUNDS AS KINASE INHIBITORS, COMPOSITIONS, AND METHODS OF USE THEREOF” (JS INNOMED HOLDINGS LTD., priority 2022, published 2026).
